Measured values published in ChEMBL document CHEMBL1126876, “Synthesis of paraxanthine analogs (1,7-disubstituted xanthines) and other xanthines unsubstituted at the 3-position: structure-activity relationships at adenosine receptors” (J Med Chem, 1993).

What follows are compounds tested against T1, Adenosine receptor A1 (Rattus norvegicus) (UniProt P25099) (assay: Binding affinity at Adenosine A1 receptor in rat brain cortical membrane using [3H]- N6-R-phenylisopropyladenosine (R-PIA)). Conditions: concentration not given here.
T1 sequence (whole entry): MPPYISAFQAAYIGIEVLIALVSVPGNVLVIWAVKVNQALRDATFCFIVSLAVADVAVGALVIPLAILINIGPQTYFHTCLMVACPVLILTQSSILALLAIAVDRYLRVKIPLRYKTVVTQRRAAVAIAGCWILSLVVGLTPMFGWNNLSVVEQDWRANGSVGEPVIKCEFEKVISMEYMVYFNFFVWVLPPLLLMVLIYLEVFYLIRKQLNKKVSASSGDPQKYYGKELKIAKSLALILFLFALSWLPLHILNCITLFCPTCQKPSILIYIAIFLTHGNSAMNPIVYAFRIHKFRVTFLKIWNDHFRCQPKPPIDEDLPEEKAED
Assay type: cell membranes

inhibition | Compound
5% | Cn1c(=O)[nH]c(=O)c2[nH]c(-c3ccc(S(=O)(=O)O)cc3)nc21

What follows are compounds tested against T2, Adenosine A2 receptor (Rattus norvegicus) (UniProt P29276+P30543) (assay: Binding affinity at Adenosine A2 receptor in rat striatal membrane using [3H]- 5'-N-ethylcarboxamidoadenosine (NECA) at 200 uM). Conditions: Striatum.

inhibition | Compound
6% | CN1CN(C)c2c(O)nc(O)nc21

What follows are compounds tested against T3, Adenosine receptor A1 (Rattus norvegicus, UniProt P25099) (assay: Binding affinity at Adenosine A1 receptor in rat brain cortical membrane using [3H]N6-R-phenylisopropyladenosine (R-PIA) as radioligand). Conditions: not given.
T3 sequence (P25099 whole entry): T1 sequence (whole entry)
Assay type: cell membranes

Ki | Compound
2.2 µM | CCCn1c(=O)[nH]c2nc(-c3ccc(S(=O)(=O)O)cc3)[nH]c2c1=O
36 µM | C=CCn1cnc2c1c(=O)[nH]c(=O)n2CC=C
3.7 µM | CCn1c(=O)c2nc[nH]c2n(CC)c1=O
4 µM | CC(C)Cn1c(=O)c2nc[nH]c2n(CC(C)C)c1=O
2.8 µM | O=c1[nH]c2[nH]cnc2c(=O)n1Cc1ccccc1
11 µM | O=c1[nH]c2[nH]cnc2c(=O)n1C1CCCC1
0.82 µM | C#CCn1c(=O)c2[nH]cnc2n(C)c1=O
0.19 µM | O=c1[nH]c2nc(-c3ccccc3)[nH]c2c(=O)n1CCc1ccccc1
0.15 µM | CCn1c(=O)[nH]c2[nH]c(-c3ccccc3)nc2c1=O
9.2 µM | C=CCn1c(=O)[nH]c2[nH]cnc2c1=O
27 µM | CCCCn1cnc2[nH]c(=O)[nH]c(=O)c21
9.9 µM | C#CCn1cnc2[nH]c(=O)n(C)c(=O)c21

More lines, now with the values behind:

Compound | Ki
CCCn1cnc2[nH]c(=O)[nH]c(=O)c21 | 18 µM
C#CCn1c(=O)c2c(nc(-c3ccccc3)n2C)n(C)c1=O | 6.1 µM
O=c1[nH]c2[nH]cnc2c(=O)n1Cc1cccc(Cl)c1 | 4.9 µM
Cn1c(=O)[nH]c2[nH]cnc2c1=O [1-METHYLXANTHINE] | 36 µM
CCCn1c(=O)[nH]c2[nH]cnc2c1=O | 13 µM
Cn1c(=O)[nH]c(=O)c2[nH]c(-c3ccccc3)nc21 | 3.4 µM
C#CCn1c(=O)[nH]c2ncn(C)c2c1=O | 22 µM
O=c1[nH]c2nc[nH]c2c(=O)n1CCc1ccccc1 | 12 µM
C=CCn1c(=O)c2[nH]c(-c3ccccc3)nc2n(C)c1=O | 0.1 µM
C#CCn1c(=O)[nH]c2[nH]c(C3CCCCC3)nc2c1=O | 0.17 µM
C#CCn1c(=O)[nH]c2[nH]cnc2c1=O | 20 µM
Cn1c(=O)[nH]c2[nH]c(-c3ccccc3)nc2c1=O | 0.26 µM
CCCn1c(=O)[nH]c2ncn(C)c2c1=O | 21 µM
Cn1c(=O)[nH]c2ncn(C)c2c1=O [PARAXANTHINE] | 21 µM
C#CCn1c(=O)[nH]c2[nH]c(-c3ccccc3)nc2c1=O | 0.21 µM
Cn1cnc2[nH]c(=O)[nH]c(=O)c21 [7-METHYLXANTHINE] | 33 µM
CC(=O)Cn1c(=O)[nH]c2[nH]c(C3CCCC3)nc2c1=O | 2.5 µM
CCCn1c(=O)[nH]c2[nH]c(C3CCCC3)nc2c1=O | 0.014 µM
CCCn1c(=O)c2nc[nH]c2n(C)c1=O | 5.7 µM
CCCn1c(=O)n(C)c(=O)c2[nH]cnc21 | 6.3 µM

These compounds were tested against T1, Adenosine receptor A1 (Rattus norvegicus) (assay: Binding affinity at Adenosine A1 receptor in rat brain cortical membrane using [3H]- N6-R-phenylisopropyladenosine (R-PIA) at 200 uM). Conditions: not given.

inhibition | Compound
11% | Cn1c(=O)[nH]c2c(ncn2C)c1=O

What follows are compounds tested against T2, Adenosine A2 receptor (Rattus norvegicus) (assay: Binding affinity at Adenosine A2 receptor in rat striatal membrane using [3H]- 5'-N-ethylcarboxamidoadenosine (NECA) at 200 uM). Conditions: Striatum.
Assay type: cell membranes

inhibition | Compound
11% | Cn1cnc2c(=O)[nH]c(=O)n(C)c21
40% | CCCn1cnc2[nH]c(=O)[nH]c(=O)c21
14% | Cn1c(=O)[nH]c2c(ncn2C)c1=O

Each compound was assayed against T2, Adenosine A2 receptor (Rattus norvegicus) (assay: not given). Conditions: Striatum, Membrane, at 250 µM.

inhibition | Compound
16% | Cn1c(=O)[nH]c(=O)c2[nH]c(-c3ccc(S(=O)(=O)O)cc3)nc21
17% | Cn1c(=O)[nH]c(=O)c2[nH]c(-c3ccccc3)nc21
44% | CCCn1c(=O)[nH]c(=O)c2[nH]c(-c3ccc(S(=O)(=O)O)cc3)nc21
15% | CCCn1cnc2c(=O)[nH]c(=O)[nH]c21

Each compound was assayed against T1, Adenosine receptor A1 (Rattus norvegicus) (assay: Binding affinity at Adenosine A1 receptor in rat brain cortical membrane using [3H]- N6-R-phenylisopropyladenosine (R-PIA) at 250 uM). Conditions: not given.
Assay type: cell membranes

inhibition | Compound
40% | CCCn1c(=O)[nH]c(=O)c2[nH]c(-c3ccc(S(=O)(=O)O)cc3)nc21

Each compound was assayed against Adenosine A2 receptor (Rattus norvegicus, UniProt P29276+P30543) (assay: Binding affinity against Adenosine A2 receptor in rat striatal membranes using [3H]5'-(N-ethylcarboxamido)-adenosine (NECA) as the ligand). Conditions: not given.
Assay type: cell membranes, Striatum, Membrane

Ki | Compound
24 µM | CCCn1c(=O)[nH]c2nc(-c3ccc(S(=O)(=O)O)cc3)[nH]c2c1=O
16 µM | CC(C)Cn1c(=O)n(C)c(=O)c2nc[nH]c21 [ISOBUTYLMETHYLXANTHINE]
36 µM | C=CCn1cnc2c1c(=O)[nH]c(=O)n2CC=C
31 µM | CCn1c(=O)c2nc[nH]c2n(CC)c1=O
16 µM | CC(C)n1c(=O)n(C)c(=O)c2[nH]cnc21
22 µM | O=c1[nH]c2[nH]cnc2c(=O)n1Cc1ccccc1
13 µM | O=c1[nH]c2[nH]cnc2c(=O)n1C1CCCC1
4.8 µM | C#CCn1c(=O)c2[nH]cnc2n(C)c1=O
11 µM | CC(C)CCn1c(=O)c2nc[nH]c2n(CC(C)C)c1=O
61 µM | CCCCn1c(=O)[nH]c2[nH]cnc2c1=O
1.8 µM | CCn1c(=O)[nH]c2[nH]c(-c3ccccc3)nc2c1=O
10 µM | C=CCn1c(=O)[nH]c2[nH]cnc2c1=O
66 µM | CCCCn1cnc2[nH]c(=O)[nH]c(=O)c21
14 µM | C#CCn1cnc2[nH]c(=O)n(C)c(=O)c21

The remaining lines, values behind:

Compound | Ki
CCn1c(=O)c2nc[nH]c2n(C)c1=O | 23 µM
C#CCn1c(=O)c2c(nc(-c3ccccc3)n2C)n(C)c1=O | 6.4 µM
Cn1c(=O)[nH]c(=O)c2[nH]cnc21 [3-METHYLXANTHINE] | 59 µM
O=c1[nH]c2[nH]cnc2c(=O)n1Cc1cccc(Cl)c1 | 26 µM
Cn1c(=O)[nH]c2[nH]cnc2c1=O [1-METHYLXANTHINE] | 47 µM
CCCn1c(=O)[nH]c2[nH]cnc2c1=O | 33 µM
CC(C)n1c(=O)[nH]c(=O)c2[nH]cnc21 | 53 µM
CCCn1c(=O)[nH]c(=O)c2[nH]c(C3CCCCC3)nc21 | 24 µM
C#CCn1c(=O)[nH]c2ncn(C)c2c1=O | 16 µM
C=CCn1c(=O)c2[nH]c(-c3ccccc3)nc2n(C)c1=O | 2.1 µM
C#CCn1c(=O)[nH]c2[nH]c(C3CCCCC3)nc2c1=O | 1.7 µM
C#CCn1c(=O)[nH]c2[nH]cnc2c1=O | 26 µM
Cn1c(=O)[nH]c2[nH]c(-c3ccccc3)nc2c1=O | 2.2 µM
CCCn1c(=O)[nH]c2ncn(C)c2c1=O | 29 µM
Cn1c(=O)[nH]c2ncn(C)c2c1=O [PARAXANTHINE] | 32 µM
CCn1c(=O)[nH]c2[nH]c(C3CCCCC3)nc2c1=O | 2.3 µM
C#CCn1c(=O)[nH]c2[nH]c(-c3ccccc3)nc2c1=O | 0.73 µM
O=c1[nH]c(=O)c2[nH]c(-c3ccccc3)nc2[nH]1 | 21 µM
Cn1cnc2[nH]c(=O)[nH]c(=O)c21 [7-METHYLXANTHINE] | 59 µM
CC(=O)Cn1c(=O)[nH]c2[nH]c(C3CCCC3)nc2c1=O | 9.7 µM
CCCn1c(=O)[nH]c2[nH]c(C3CCCC3)nc2c1=O | 0.58 µM
CCCn1c(=O)c2nc[nH]c2n(C)c1=O | 37 µM
CCCn1c(=O)[nH]c2[nH]c(-c3ccccc3)nc2c1=O | 1.9 µM
CCCn1c(=O)n(C)c(=O)c2[nH]cnc21 | 19 µM
CCCn1c(=O)[nH]c(=O)c2[nH]c(-c3ccccc3)nc21 | 61 µM

Each compound was assayed against T1, Adenosine receptor A1 (Rattus norvegicus) (assay: Binding affinity at Adenosine A1 receptor in rat brain cortical membrane using [3H]- N6-R-phenylisopropyladenosine (R-PIA) at 100 uM). Conditions: not given.
Assay type: cell membranes

Compound | inhibition
Cn1c(=O)[nH]c(=O)c2[nH]cnc21 [3-METHYLXANTHINE] | 24%
CC(C)n1c(=O)[nH]c(=O)c2[nH]cnc21 | 34%

What follows are compounds tested against T1, Adenosine receptor A1 (Rattus norvegicus) (assay: Binding affinity at A1 adenosine receptor in rat brain cortical membrane using [3H]- N6-R-phenylisopropyladenosine (R-PIA) at 250 uM). Conditions: not given.
Assay type: cell membranes

inhibition | Compound
5% | CN1CN(C)c2c(O)nc(O)nc21
42% | CCCn1cnc2c(=O)[nH]c(=O)[nH]c21

Each compound was assayed against T3, Adenosine receptor A1 (assay: Binding affinity at A1 adenosine receptor in rat brain cortical membrane using [3H]- N6-R-phenylisopropyladenosine (R-PIA)). Conditions: not given.
Assay type: cell membranes

Ki | Compound
0.068 µM | O=c1[nH]c2nc(-c3ccccc3)[nH]c2c(=O)n1Cc1cccc(Cl)c1
2.5 µM | O=c1[nH]c(=O)c2[nH]c(-c3ccccc3)nc2[nH]1

Each compound was assayed against T2, Adenosine A2 receptor (Rattus norvegicus) (assay: Binding affinity at Adenosine A2 receptor in rat striatal membrane using [3H]- 5'-N-ethylcarboxamidoadenosine (NECA) at 20 uM). Conditions: Striatum.
Assay type: cell membranes

inhibition | Compound
0% | O=c1[nH]c2[nH]cnc2c(=O)n1CCc1ccccc1

What follows are compounds tested against T1, Adenosine receptor A1 (Rattus norvegicus) (assay: not given). Conditions: Brain, at 250 µM.

inhibition | Compound
42% | Cn1cnc2c(=O)[nH]c(=O)n(C)c21

The compounds below were run against T2, Adenosine A2 receptor (Rattus norvegicus) (assay: Binding affinity at Adenosine A2 receptor in rat striatal membrane using [3H]- 5'-N-ethylcarboxamidoadenosine (NECA) at 1 uM). Conditions: Striatum.
Assay type: cell membranes

inhibition | Compound
32% | O=c1[nH]c2[nH]c(-c3ccccc3)nc2c(=O)n1Cc1cccc(Cl)c1
0% | O=c1[nH]c2[nH]c(-c3ccccc3)nc2c(=O)n1CCc1ccccc1
